This data set has as its system CCRIS mutagenicity, Ames/micronucleus/aberration tests. Description: CCRIS mutagenicity studies.
The mark [1] stands for this setting: Test System: AMES SALMONELLA TYPHIMURIUM, Strain/Indicator: TA97, Metabolic Activation: NONE, Method: PREINCUBATION
The mark [2] stands for this setting: Test System: AMES SALMONELLA TYPHIMURIUM, Strain/Indicator: TA102, Metabolic Activation: NONE, Method: PREINCUBATION

Active and inactive are the calls of the source. No rule for the calls is given here.

Turning to `CCC(C)=O`, the mutagenic call (Test System: AMES SALMONELLA TYPHIMURIUM, Strain/Indicator: TA97, Metabolic Activation: HAMSTER, LIVER, S-9, AROCLOR 1254 (10 OR 30%), Method: PREINCUBATION) was “inactive; negative”; the mutagenic call under setting [1] is “inactive; negative”; the mutagenic call (Test System: AMES SALMONELLA TYPHIMURIUM, Strain/Indicator: TA97, Metabolic Activation: RAT, LIVER, S-9, AROCLOR 1254 (10 OR 30%), Method: PREINCUBATION) is “inactive; negative”; the mutagenic call (Test System: AMES SALMONELLA TYPHIMURIUM, Strain/Indicator: TA98, Metabolic Activation: HAMSTER, LIVER, S-9, AROCLOR 1254 (10 OR 30%), Method: PREINCUBATION) is “inactive; negative”; the mutagenic call (Test System: AMES SALMONELLA TYPHIMURIUM, Strain/Indicator: TA98, Metabolic Activation: RAT, LIVER, S-9, AROCLOR 1254 (10 OR 30%), Method: PREINCUBATION) is “inactive; negative”; the mutagenic call (Test System: AMES SALMONELLA TYPHIMURIUM, Strain/Indicator: TA98, Metabolic Activation: RAT, LIVER, S-9, AROCLOR 1254, Method: PREINCUBATION) was “inactive; negative”. Further, the mutagenic call runs as follows: (Test System: AMES SALMONELLA TYPHIMURIUM, Strain/Indicator: TA98, Metabolic Activation: RAT, LIVER, S-9, KC 500, Method: PREINCUBATION) “inactive; negative”; (Test System: AMES SALMONELLA TYPHIMURIUM, Strain/Indicator: TA98, Metabolic Activation: RAT, LIVER, S-9, PHENOBARBITAL AND BETA-NAPHTHOFLAVONE, Method: PREINCUBATION) “inactive; negative”; (Test System: AMES SALMONELLA TYPHIMURIUM, Strain/Indicator: TA100, Metabolic Activation: HAMSTER, LIVER, S-9, AROCLOR 1254 (10 OR 30%), Method: PREINCUBATION) “inactive; negative”; (Test System: AMES SALMONELLA TYPHIMURIUM, Strain/Indicator: TA100, Metabolic Activation: RAT, LIVER, S-9, AROCLOR 1254 (10 OR 30%), Method: PREINCUBATION) “inactive; negative”; (Test System: AMES SALMONELLA TYPHIMURIUM, Strain/Indicator: TA100, Metabolic Activation: RAT, LIVER, S-9, AROCLOR 1254, Method: PREINCUBATION) “inactive; negative”; (Test System: AMES SALMONELLA TYPHIMURIUM, Strain/Indicator: TA100, Metabolic Activation: RAT, LIVER, S-9, KC 500, Method: PREINCUBATION) “inactive; negative”. Besides, the mutagenic call was “inactive; negative” (Test System: AMES SALMONELLA TYPHIMURIUM, Strain/Indicator: TA100, Metabolic Activation: RAT, LIVER, S-9, PHENOBARBITAL AND BETA-NAPHTHOFLAVONE, Method: PREINCUBATION); “inactive; negative” under setting [2]; “inactive; negative” (Test System: AMES SALMONELLA TYPHIMURIUM, Strain/Indicator: TA102, Metabolic Activation: RAT, LIVER, S-9, PHENOBARBITAL AND BETA-NAPHTHOFLAVONE, Method: PREINCUBATION); “inactive; negative” (Test System: AMES SALMONELLA TYPHIMURIUM, Strain/Indicator: TA104, Metabolic Activation: NONE, Method: PREINCUBATION); “inactive; negative” (Test System: AMES SALMONELLA TYPHIMURIUM, Strain/Indicator: TA104, Metabolic Activation: RAT, LIVER, S-9, PHENOBARBITAL AND BETA-NAPHTHOFLAVONE, Method: PREINCUBATION); “inactive; negative” (Test System: AMES SALMONELLA TYPHIMURIUM, Strain/Indicator: TA1535, Metabolic Activation: HAMSTER, LIVER, S-9, AROCLOR 1254 (10 OR 30%), Method: PREINCUBATION). Moreover, the mutagenic call (Test System: AMES SALMONELLA TYPHIMURIUM, Strain/Indicator: TA1535, Metabolic Activation: RAT, LIVER, S-9, AROCLOR 1254 (10 OR 30%), Method: PREINCUBATION) is “inactive; negative”; the mutagenic call (Test System: AMES SALMONELLA TYPHIMURIUM, Strain/Indicator: TA1535, Metabolic Activation: RAT, LIVER, S-9, AROCLOR 1254, Method: PREINCUBATION) was “inactive; negative”; the mutagenic call (Test System: AMES SALMONELLA TYPHIMURIUM, Strain/Indicator: TA1535, Metabolic Activation: RAT, LIVER, S-9, KC 500, Method: PREINCUBATION) is “inactive; negative”; the mutagenic call (Test System: AMES SALMONELLA TYPHIMURIUM, Strain/Indicator: TA1535, Metabolic Activation: RAT, LIVER, S-9, PHENOBARBITAL AND BETA-NAPHTHOFLAVONE, Method: PREINCUBATION) is “inactive; negative”; the mutagenic call (Test System: AMES SALMONELLA TYPHIMURIUM, Strain/Indicator: TA1537, Metabolic Activation: HAMSTER, LIVER, S-9, AROCLOR 1254 (30%), Method: PREINCUBATION) is “inactive; negative”; the mutagenic call (Test System: AMES SALMONELLA TYPHIMURIUM, Strain/Indicator: TA1537, Metabolic Activation: RAT, LIVER, S-9, AROCLOR 1254 (30%), Method: PREINCUBATION) was “inactive; negative”. Further, the mutagenic call reads like this: (Test System: AMES SALMONELLA TYPHIMURIUM, Strain/Indicator: TA1537, Metabolic Activation: RAT, LIVER, S-9, AROCLOR 1254, Method: PREINCUBATION) “inactive; negative”; (Test System: AMES SALMONELLA TYPHIMURIUM, Strain/Indicator: TA1537, Metabolic Activation: RAT, LIVER, S-9, KC 500, Method: PREINCUBATION) “inactive; negative”; (Test System: AMES SALMONELLA TYPHIMURIUM, Strain/Indicator: TA1537, Metabolic Activation: RAT, LIVER, S-9, PHENOBARBITAL AND BETA-NAPHTHOFLAVONE, Method: PREINCUBATION) “inactive; negative”; (Test System: AMES SALMONELLA TYPHIMURIUM, Strain/Indicator: TA1538, Metabolic Activation: NONE, Method: PREINCUBATION) “inactive; negative”; (Test System: AMES SALMONELLA TYPHIMURIUM, Strain/Indicator: TA1538, Metabolic Activation: RAT, LIVER, S-9, AROCLOR 1254, Method: PREINCUBATION) “inactive; negative”; (Test System: AMES SALMONELLA TYPHIMURIUM, Strain/Indicator: TA1538, Metabolic Activation: RAT, LIVER, S-9, KC 500, Method: PREINCUBATION) “inactive; negative”. Moreover, the mutagenic call was “inactive; negative” (Test System: E. COLI, Strain/Indicator: WP2UVRA/PKM101, Metabolic Activation: NONE, Method: PREINCUBATION); “inactive; negative” (Test System: E. COLI, Strain/Indicator: WP2UVRA/PKM101, Metabolic Activation: RAT, LIVER, S-9, PHENOBARBITAL AND BETA-NAPHTHOFLAVONE, Method: PREINCUBATION); “inactive; negative” (Test System: E. COLI, Strain/Indicator: WP2 UVRA, Metabolic Activation: NONE, Method: PREINCUBATION); “inactive; negative” (Test System: E. COLI, Strain/Indicator: WP2UVRA, Metabolic Activation: NONE, Method: PREINCUBATION); “inactive; negative” (Test System: E. COLI, Strain/Indicator: WP2 UVRA, Metabolic Activation: RAT, LIVER, S-9, KC 500, Method: PREINCUBATION); “inactive; negative” (Test System: E. COLI, Strain/Indicator: WP2UVRA, Metabolic Activation: RAT, LIVER, S-9, PHENOBARBITAL AND BETA-NAPHTHOFLAVONE, Method: PREINCUBATION). The mutagenic call runs as follows: (Test System: MOUSE LYMPHOMA, Strain/Indicator: L5178Y (TK+/TK-), Metabolic Activation: NONE, Method: SUSPENSION/PLATE) “inactive; negative”; (Test System: MOUSE LYMPHOMA, Strain/Indicator: L5178Y (TK+/TK-), Metabolic Activation: RAT, LIVER, S-9, AROCLOR 1242 AND AROCLOR 1254 (2:1), Method: SUSPENSION/PLATE) “inactive; negative”.

Regarding `CCCC(=O)OCCC(C)C`, the mutagenic call runs as follows: under setting [1], “inactive; negative”; (Test System: AMES SALMONELLA TYPHIMURIUM, Strain/Indicator: TA97, Metabolic Activation: RAT, LIVER, S-9, AROCLOR 1254, Method: PREINCUBATION) “inactive; negative”; under setting [2], “inactive; negative”; (Test System: AMES SALMONELLA TYPHIMURIUM, Strain/Indicator: TA102, Metabolic Activation: RAT, LIVER, S-9, AROCLOR 1254, Method: PREINCUBATION) “inactive; negative”.

As to `CC(C)(C)OC(=O)N/N=C/c1c[n+]([O-])c2ccccc2[n+]1[O-]`, the mutagenic call by setting is: (Test System: AMES SALMONELLA TYPHIMURIUM, Strain/Indicator: TA98, Metabolic Activation: NONE, Method: PREINCUBATION) “active; positive”; (Test System: AMES SALMONELLA TYPHIMURIUM, Strain/Indicator: TA98, Metabolic Activation: S-9, Method: PREINCUBATION) “active; positive”; (Test System: AMES SALMONELLA TYPHIMURIUM, Strain/Indicator: TA100, Metabolic Activation: NONE, Method: PREINCUBATION) “active; positive”; (Test System: AMES SALMONELLA TYPHIMURIUM, Strain/Indicator: TA100, Metabolic Activation: S-9, Method: PREINCUBATION) “active; positive”; (Test System: E. COLI, Strain/Indicator: WP2 UVRA (PKM101), Metabolic Activation: NONE) “active; positive”; (Test System: E. COLI, Strain/Indicator: WP2 UVRA (PKM101), Metabolic Activation: S-9) “active; positive”.

The values are drawn from PubChem BioAssay AID1259407 (Chemical Carcinogenesis Research Information System (CCRIS), 2018).
